Source: the supplement of paper PMC10307832

Assays:
Assay in all cases: relative viability (nuclei count vs DMSO), 5 days (fraction); higher = more cells survive
[1] = test system: SW 900
How it was run: (§1)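 Relative viability divides the nuclei count in treated wells by that in vehicle wells. Lung cancer cell lines were seeded in 1536-well plates, dosed by pin tool the next day, and fixed and stained after 5 days in one step with final 0.05% Triton X-100, 1% formaldehyde and 1 ug/ml Hoechst. Dosing was a single drug or a fixed anchor-drug dose plus five library-drug doses (not always all listed) in √10 steps, and values are medians of duplicate plates imaged at 4×.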

[2] = test system: H3255
How it was run: as §1

[3] = test system: LXF-289
How it was run: as §1

[4] = test system: NCI-H441
How it was run: as §1

[5] = test system: NCI-H1734
How it was run: as §1

[6] = test system: ChaGo-K-1
How it was run: as §1

[7] = test system: NCI-H522
How it was run: as §1

[8] = test system: NCI-H2170
How it was run: as §1

[9] = test system: CAL-12T
How it was run: as §1

[10] = test system: HOP-62
How it was run: as §1

[11] = test system: NCI-H647
How it was run: as §1

[12] = test system: LK-2
How it was run: as §1

[13] = test system: NCI-H322M
How it was run: as §1

[14] = test system: NCI-H2087
How it was run: as §1

[15] = test system: NCI-H1755
How it was run: as §1

[16] = test system: ABC-1
How it was run: as §1

[17] = test system: NCI-H2009
How it was run: as §1

[18] = test system: EMC-BAC-2
How it was run: as §1

[19] = test system: PC-14
How it was run: as §1

[20] = test system: NCI-H596
How it was run: as §1

[21] = test system: 201T
How it was run: as §1

[22] = test system: NCI-H3122
How it was run: as §1

[23] = test system: NCI-H2126
How it was run: as §1

[24] = test system: NCI-H1651
How it was run: as §1

`CCCCCCCCCCCC1=C(O)C(=O)C=C(O)C1=O` [Embelin] + O=C(c1cc(Cc2n[nH]c(=O)c3ccccc23)ccc1F)N1CCN(C(=O)C2CC2)CC1 [Olaparib] (partner 8 µM) was tested. Which relative viability ([1]; first compound 0.08 µM) did it give?
The relative viability was 1.

What about the relative viability ([1]; first compound 0.8 µM) of the same compound?
Its relative viability is 0.771.

What about the relative viability ([1]; first compound 2.53 µM) of the same compound?
Its relative viability is 1.15.

What about the relative viability ([1]; first compound 8 µM) of the same compound?
Its relative viability is 0.918.

And the relative viability ([2]; first compound 0.08 µM)?
Its relative viability is 0.561.

What about the relative viability ([2]; first compound 0.8 µM) of the same compound?
The relative viability was 0.614.

What about the relative viability ([2]; first compound 2.53 µM) of the same compound?
The relative viability was 0.59.

And the relative viability ([2]; first compound 8 µM)?
The relative viability was 0.546.

What about the relative viability ([3]; first compound 0.08 µM) of the same compound?
The relative viability was 1.06.

And the relative viability ([3]; first compound 0.8 µM)?
Its relative viability is 1.17.

What about the relative viability ([3]; first compound 2.53 µM) of the same compound?
The relative viability was 1.26.

What about the relative viability ([3]; first compound 8 µM) of the same compound?
The relative viability was 1.14.

And the relative viability ([4]; first compound 0.08 µM)?
The relative viability was 0.624.

And the relative viability ([4]; first compound 0.8 µM)?
Its relative viability is 0.627.

What about the relative viability ([4]; first compound 2.53 µM) of the same compound?
Its relative viability is 0.521.

And the relative viability ([4]; first compound 8 µM)?
Its relative viability is 0.618.

What about the relative viability ([5]; first compound 0.08 µM) of the same compound?
The relative viability was 0.623.

And the relative viability ([5]; first compound 0.8 µM)?
Its relative viability is 0.568.

And the relative viability ([5]; first compound 2.53 µM)?
Its relative viability is 0.651.

What about the relative viability ([5]; first compound 8 µM) of the same compound?
Its relative viability is 0.644.

What about the relative viability ([6]; first compound 0.08 µM) of the same compound?
The relative viability was 0.464.

What about the relative viability ([6]; first compound 0.8 µM) of the same compound?
Its relative viability is 0.319.

What about the relative viability ([6]; first compound 2.53 µM) of the same compound?
The relative viability was 0.441.

And the relative viability ([6]; first compound 8 µM)?
Its relative viability is 0.45.

What about the relative viability ([7]; first compound 0.08 µM) of the same compound?
The relative viability was 0.674.

And the relative viability ([7]; first compound 0.8 µM)?
The relative viability was 0.633.

And the relative viability ([7]; first compound 2.53 µM)?
The relative viability was 0.689.

And the relative viability ([7]; first compound 8 µM)?
The relative viability was 0.945.

And the relative viability ([8]; first compound 0.08 µM)?
Its relative viability is 0.569.

What about the relative viability ([8]; first compound 0.8 µM) of the same compound?
The relative viability was 0.554.

What about the relative viability ([8]; first compound 2.53 µM) of the same compound?
The relative viability was 0.586.

And the relative viability ([8]; first compound 8 µM)?
The relative viability was 0.592.

And the relative viability ([9]; first compound 0.08 µM)?
Its relative viability is 0.726.

And the relative viability ([9]; first compound 0.8 µM)?
The relative viability was 0.727.

What about the relative viability ([9]; first compound 2.53 µM) of the same compound?
The relative viability was 0.706.

And the relative viability ([9]; first compound 8 µM)?
The relative viability was 0.677.

What about the relative viability ([10]; first compound 0.08 µM) of the same compound?
Its relative viability is 0.29.

What about the relative viability ([10]; first compound 0.8 µM) of the same compound?
The relative viability was 0.253.

What about the relative viability ([10]; first compound 2.53 µM) of the same compound?
The relative viability was 0.354.

And the relative viability ([10]; first compound 8 µM)?
The relative viability was 0.451.

And the relative viability ([11]; first compound 0.08 µM)?
The relative viability was 0.575.

What about the relative viability ([11]; first compound 0.8 µM) of the same compound?
The relative viability was 0.67.

What about the relative viability ([11]; first compound 2.53 µM) of the same compound?
Its relative viability is 0.705.

What about the relative viability ([11]; first compound 8 µM) of the same compound?
The relative viability was 0.678.

What about the relative viability ([12]; first compound 0.08 µM) of the same compound?
The relative viability was 0.72.

And the relative viability ([12]; first compound 0.8 µM)?
Its relative viability is 0.515.

And the relative viability ([12]; first compound 2.53 µM)?
Its relative viability is 0.686.

What about the relative viability ([12]; first compound 8 µM) of the same compound?
Its relative viability is 0.69.

And the relative viability ([13]; first compound 0.08 µM)?
The relative viability was 0.776.

And the relative viability ([13]; first compound 0.8 µM)?
The relative viability was 0.617.

And the relative viability ([13]; first compound 2.53 µM)?
The relative viability was 0.75.

What about the relative viability ([13]; first compound 8 µM) of the same compound?
Its relative viability is 0.774.

What about the relative viability ([14]; first compound 0.08 µM) of the same compound?
Its relative viability is 0.649.

And the relative viability ([14]; first compound 0.8 µM)?
Its relative viability is 0.729.

What about the relative viability ([14]; first compound 2.53 µM) of the same compound?
The relative viability was 0.688.

What about the relative viability ([14]; first compound 8 µM) of the same compound?
The relative viability was 0.607.

What about the relative viability ([15]; first compound 0.08 µM) of the same compound?
The relative viability was 0.986.

And the relative viability ([15]; first compound 0.8 µM)?
Its relative viability is 0.879.

And the relative viability ([15]; first compound 2.53 µM)?
The relative viability was 0.901.

What about the relative viability ([15]; first compound 8 µM) of the same compound?
Its relative viability is 0.849.

And the relative viability ([16]; first compound 0.08 µM)?
Its relative viability is 0.847.

And the relative viability ([16]; first compound 0.8 µM)?
Its relative viability is 0.988.

What about the relative viability ([16]; first compound 2.53 µM) of the same compound?
Its relative viability is 0.805.

And the relative viability ([16]; first compound 8 µM)?
Its relative viability is 0.871.

What about the relative viability ([17]; first compound 0.08 µM) of the same compound?
Its relative viability is 0.693.

What about the relative viability ([17]; first compound 0.8 µM) of the same compound?
The relative viability was 0.821.

What about the relative viability ([17]; first compound 2.53 µM) of the same compound?
Its relative viability is 0.71.

What about the relative viability ([17]; first compound 8 µM) of the same compound?
Its relative viability is 0.696.

What about the relative viability ([18]; first compound 0.08 µM) of the same compound?
The relative viability was 0.48.

And the relative viability ([18]; first compound 0.8 µM)?
Its relative viability is 0.378.

And the relative viability ([18]; first compound 2.53 µM)?
Its relative viability is 0.453.

And the relative viability ([18]; first compound 8 µM)?
Its relative viability is 0.492.

What about the relative viability ([19]; first compound 0.08 µM) of the same compound?
Its relative viability is 0.279.

What about the relative viability ([19]; first compound 0.8 µM) of the same compound?
Its relative viability is 0.264.

What about the relative viability ([19]; first compound 2.53 µM) of the same compound?
The relative viability was 0.303.

What about the relative viability ([19]; first compound 8 µM) of the same compound?
The relative viability was 0.26.

And the relative viability ([20]; first compound 0.08 µM)?
Its relative viability is 0.698.

What about the relative viability ([20]; first compound 0.8 µM) of the same compound?
Its relative viability is 0.707.

What about the relative viability ([20]; first compound 2.53 µM) of the same compound?
Its relative viability is 0.68.

And the relative viability ([20]; first compound 8 µM)?
Its relative viability is 0.762.

What about the relative viability ([21]; first compound 0.08 µM) of the same compound?
Its relative viability is 0.826.

What about the relative viability ([21]; first compound 0.8 µM) of the same compound?
The relative viability was 0.875.

What about the relative viability ([21]; first compound 2.53 µM) of the same compound?
Its relative viability is 0.853.

What about the relative viability ([21]; first compound 8 µM) of the same compound?
The relative viability was 0.902.

And the relative viability ([22]; first compound 0.08 µM)?
The relative viability was 0.646.

And the relative viability ([22]; first compound 0.8 µM)?
The relative viability was 0.603.

And the relative viability ([22]; first compound 2.53 µM)?
Its relative viability is 0.609.

What about the relative viability ([22]; first compound 8 µM) of the same compound?
Its relative viability is 0.671.

And the relative viability ([23]; first compound 0.08 µM)?
The relative viability was 0.901.

And the relative viability ([23]; first compound 0.8 µM)?
The relative viability was 0.954.

What about the relative viability ([23]; first compound 2.53 µM) of the same compound?
The relative viability was 0.936.

And the relative viability ([23]; first compound 8 µM)?
Its relative viability is 0.892.

What about the relative viability ([24]; first compound 0.08 µM) of the same compound?
The relative viability was 0.201.

And the relative viability ([24]; first compound 0.8 µM)?
Its relative viability is 0.166.

And the relative viability ([24]; first compound 2.53 µM)?
Its relative viability is 0.166.

What about the relative viability ([24]; first compound 8 µM) of the same compound?
Its relative viability is 0.191.
